Experimental data reported in publication PMC7884015 (Journal of Agricultural and Food Chemistry, 2021).
“Also recorded” adds a separate entry of the source. Like-named read-outs stand apart in the source and are kept apart here.

How the values were obtained:
honey bees = details: cited from earlier work
in vivo = details: for Bee without gut %: percentage of total quantity recovered in the dissected bee found in the bee without gut; for Bee without gut % / Gut %: N = 6; for Gut %: percentage of total quantity recovered in the dissected bee found in the gut
From the text: (§1) Honey bees (A. mellifera L) were collected from brood frames in the apiary of Aarhus University, Flakkebjerg. The collected bees were fed on 50% sucrose for 3 days. On day 3, the bees were divided into eight experimental groups placed in feeding cages (N = 49–73). The exact numbers of bees in the individual cages were counted at the end of the experiment. A portion of bees were also collected for the analysis of the presence of the compounds prior to the experiment. Thus, these bees served as a negative control group. The feeding boxes were placed in incubators in complete darkness under the following conditions: 34 °C; 38–40% relative humidity. Information about plants known to produce the phytochemicals fed to the honey bees is included in the Supporting Information (Table S1). The prepared solutions were placed in 1.5 mL Eppendorf tubes, and the bottom of the tubes was pierced with a sterilized needle to allow the bees to feed on the solution. The feeding solutions were replaced every 24 h to prevent compound degradation and measure food intake. Dead bees were counted and removed daily. On day 5, the feeding containers were removed, and 2 h later, the bees were anesthetized with CO2 and killed by freezing.
Six bees from each of the experimental groups were defrosted and rinsed with water, and their heads were removed with a scalpel to cut the esophagus. The complete alimentary canal (hereafter “gut”) was removed by grabbing the stinger with tweezers and gently pulling until the alimentary canal was released.[31] The two samples consisting of the gut and the rest of the bee without the gut (head, thorax, and abdomen; hereafter, “bee without gut”) were lyophilized separately in 1.5 mL Eppendorf tubes. Upon drying, the samples comprising the bees without guts were transferred to the extraction Falcon tubes, pulverized, and extracted as described above for the whole bees. Samples comprising the guts were instead pulverized directly in the 1.5 mL Eppendorf tubes by adding two metal beads and placing these tubes in the Geno/Grinder using a modified rack. Because of the small sample size, the pulverized guts were then gradually transferred to the extraction Falcon tubes using the extraction solvents to flush the material from the Eppendorf tubes. The remaining parts of the extraction followed the protocols described above for whole bees.
(§2) Prior to the analysis, the compound-dependent mass spectrometer parameters of the eight compounds were optimized by infusion. For each compound, two MRM transitions were monitored (Table 2); one transition was used for quantification, whereas the other was used as a qualifier MRM to ensure correct identification.
(§3) The compounds were separated on a Synergy Fusion column (150 mm × 2 mm, 4 μm; Phenomenex, Værløse, Denmark) with a flow rate of 0.4 mL/min, and the gradient was as follows: 0–2 min: 100% A; 2–18 min: 100–30% A; 18–19 min: 30–0% A; 19–22 min: 0% A; 22–23 min: 0–100% A and 23–30 min: 100% A. Source parameters were as follows: curtain gas (CUR), 45 psi; collision gas (CAD), medium; temperature (TEM), 400 °C; ion source gas 1 (GS 1), 90 psi; ion source gas 2 (GS 2), 30 psi; and ionspray voltage (IS), 4200 V. Amygdalin was analyzed using the same source parameters and chromatographic method as described above, but in negative mode. […] The column was a Hypersil BDS C18 (250 mm × 2.1 mm, 5 μm; Thermo Fisher, Hvidovre, Denmark), and the solvent system consisted of 5 mM ammonium formate (A) and methanol (B). […] An injection volume of 30 μL was used for the triptolide analyses, whereas 20 and 30 μL were injected for the remaining compounds for whole and dissected bees, respectively.
In the individual dissected bees (N = 6), the sum of the quantities recovered in the guts and the bees without guts designates the total quantity of compound recovered in that individual.

[1] = for Metabolization percentage, day 4 to 5: quantity in whole bees vs intake during the last 24 h of feeding
From the text: as §1
Twelve individual bees from each of the experimental groups were rinsed with water and placed individually in 1.5 mL Eppendorf tubes. The bees were then lyophilized and transferred individually to Falcon tubes for extraction. […] The extraction solvents were added, and the bees were extracted by shaking using an Intelli-Mixer for 1 h (60 rpm). […] After extraction, the samples were centrifuged (12 min, 4 °C, 4500 rpm). […] Extracts of bees fed on triptolide were further purified by solid phase extraction (SPE) using a protocol modified from Wang et al.[30] One milliliter of the methanol extracts was diluted to 10 mL with Milli-Q water, 100 μL of formic acid was added, and the diluted extracts were loaded onto 30 mg Oasis HLB prime SPE (Waters, Hedehusene, Denmark) cartridges without prior column conditioning. The SPE cartridges were first washed with 1 mL of 2% ammonium hydroxide in 1:9 methanol/water and then with 1 mL of 2% acetic acid in 3:7 methanol/water, and triptolide was eluted from the cartridges with 1 mL of 4:1 methanol/water. Prior to HPLC-MS/MS analyses, 225 μL of the SPE eluates was diluted with 275 μL of 5 mM ammonium formate and filtered using a syringe filter (Kinesis KX PTFE syringe filter 13 mm, 0.22 μm, Mikrolab, Aarhus, Denmark).
as §2, §3

[2] = system: honey bee memory retrieval; details: cited from earlier work
Crithidia bombi = details: bumble bees; cited from earlier work
[3] = system: honey bee immune functions (antimicrobial peptide hymenoptaecin); set-up: method as in PMID 28981688; details: cited from earlier work
[4] = dissected bees N = 6, day 5, ± SD
[5] = in vivo, po, oral bioavailability (%), percentage of the total ingested quantity over the 5-day feeding period recovered in the bees without guts, ± SD, dissected bees N = 6
[6] = comparison between the eight phytochemicals, P < 0.05
[7] = whole bees N = 12, sampled day 5, 2 h after feeding was terminated, ± SD
[8] = honey bee (Apis mellifera), in vivo, po, oral bioavailability (%), percentage of the total ingested quantity over the 5-day feeding period recovered in the bees without guts, ± SD, dissected bees N = 6
[9] = percentage of the total ingested quantity over the 5-day feeding period recovered in the bees without guts, ± SD, dissected bees N = 6
[10] = honey bee (Apis mellifera), in vivo

N#C[C@H](O[C@@H]1O[C@H](CO[C@@H]2O[C@H](CO)[C@@H](O)[C@H](O)[C@H]2O)[C@@H](O)[C@H](O)[C@H]1O)c1ccccc1 [amygdalin, Amygdalin]
LD50 (honey bees): 0.003% | Bee without gut (ng/bee) (in vivo; [4]): 833 ± 511 ng/bee | Gut (ng/bee) (in vivo; [4]): 78 ± 34 ng/bee | bioavailability (in vivo; [5]): 31 ± 19% | Bee without gut % (in vivo; ± SD): 90 ± 5% | Gut % (in vivo; ± SD): 11% | Relative metabolization rate [1, 6]: metabolized significantly faster | Mean concentration (ng/bee) in whole bees [1, 7]: 238 ± 218 ng/bee

CN1[C@@H]2CC[C@H]1C[C@@H](OC(=O)C(CO)c1ccccc1)C2 (stereo partly shown) [atropine, Atropine, reference compound]
Bee without gut (ng/bee) (in vivo; [4]): 89 ± 65 ng/bee | Gut (ng/bee) (in vivo; [4]): 90 ± 17 ng/bee | Bee without gut % (in vivo; ± SD): 46 ± 15% | Gut % (in vivo; ± SD): 54 ± 15% | Mean concentration (ng/bee) in whole bees [1, 7]: 236 ± 76 ng/bee | Consumed concentration that can impair honey bee memory retrieval [2]: above 10^–2 M

OCC1=C[C@@H](O)[C@@H]2C=CO[C@@H](O[C@@H]3O[C@H](CO)[C@@H](O)[C@H](O)[C@H]3O)[C@H]12 [aucubin, Aucubin]
Effect on levels of the bumble bee gut protozoan Crithidia bombi (Crithidia bombi): significantly decreased the levels | bioavailability (in vivo; [8]): 13% | bioavailability (in vivo; [5]): 13.1 ± 3.8% | Relative metabolization rate [1, 6]: metabolized significantly slower | Metabolization percentage, day 4 to 5 [1]: significantly lower; also recorded: negative metabolization percentages | Mean concentration (ng/bee) in whole bees [1, 7]: 16400 ± 5640 ng/bee | Effect on expression of the antimicrobial peptide hymenoptaecin ([3]; aucubin feeding): significantly increased the expression | Effect on honey bee immune functions [3]: significantly stimulated honey bee immune functions

C=C[C@]12CN(C)[C@@H]3[C@H]4CO[C@H](C[C@H]41)[C@]1(C(=O)Nc4ccccc41)[C@@H]32 [gelsemine, Gelsemine]
Effect on levels of the bumble bee gut protozoan Crithidia bombi (Crithidia bombi): significantly decreased the levels | Bee without gut (ng/bee) (in vivo; [4]): 461 ± 415 ng/bee | Gut (ng/bee) (in vivo; [4]): 106 ± 67 ng/bee | bioavailability at 5 day (in vivo; [5]): 6% | oral bioavailability (%) (in vivo; [9]): 6.1 ± 5.5% | Bee without gut % (in vivo; ± SD): 71 ± 32% | Gut % (in vivo; ± SD): 30% | Gut % (in vivo; ± SD, listed as Gelsemine): 30 ± 32% | Relative metabolization rate [1, 6]: metabolized significantly faster | Mean concentration (ng/bee) in whole bees [1, 7]: 508 ± 174 ng/bee

CCN1C[C@]2(COC(=O)c3ccccc3N3C(=O)C[C@H](C)C3=O)CC[C@H](OC)[C@@]34[C@@H]5C[C@H]6[C@H](OC)[C@@H]5[C@](O)(C[C@@H]6OC)[C@@](O)([C@@H](OC)[C@H]23)[C@@H]14 [methyllycaconitine, Methyllycaconitine]
Bee without gut (ng/bee) (in vivo; [4]): 0.2 ± 0.1 ng/bee | Gut (ng/bee) (in vivo; [4]): 0.05 ± 0.03 ng/bee | bioavailability (in vivo; [5]): < 10% | Bee without gut % (in vivo; ± SD): 81 ± 13% | Gut % (in vivo; ± SD): 19 ± 13% | Relative metabolization rate [1, 6]: metabolized significantly faster | Mean concentration (ng/bee) in whole bees [1, 7]: 0.3 ± 0.2 ng/bee

C/C=C1/C[C@@H](C)[C@@](C)(O)C(=O)OCC2=CCN3CC[C@@H](OC1=O)[C@@H]23 [senecionine, Senecionine]
Bee without gut (ng/bee) (in vivo; [10]): 3.4 ± 2.2 ng/bee | Gut (ng/bee) (in vivo; [10]): 2.3 ± 1.3 ng/bee | bioavailability (in vivo; honey bee (Apis mellifera), in vivo, po, oral bioavailability (%)): < 10% | bioavailability (in vivo; in vivo, po, oral bioavailability (%)): 4 ± 2.6% | Mean concentration (ng/bee) in whole bees [1, 10]: 4.9 ± 1.6 ng/bee | Relative metabolization rate ([1]; in vivo): metabolized significantly faster

C/C=C1/C[C@@H](C)[C@@](C)(O)C(=O)OC/C2=C/CN(C)CC[C@@H](OC1=O)C2=O [senkirkine, Senkirkine]
Bee without gut (ng/bee) (in vivo; [4]): 7.0 ± 4.9 ng/bee | Gut (ng/bee) (in vivo; [4]): 2.3 ± 3.0 ng/bee | bioavailability (in vivo; [8]): < 10% | bioavailability (in vivo; [5]): 9% | oral bioavailability (%) (in vivo; [9]): 8.9 ± 6.3% | Bee without gut % (in vivo; ± SD): 73 ± 28% | Gut % (in vivo; ± SD): 27% | Relative metabolization rate [1, 6]: metabolized significantly faster | Mean concentration (ng/bee) in whole bees [1, 7]: 7.4 ± 3.5 ng/bee

CC(C)[C@]12O[C@H]1[C@@H]1O[C@]13[C@]1(O[C@H]1C[C@H]1C4=C(CC[C@@]13C)C(=O)OC4)[C@@H]2O [triptolide, Triptolide]
Bee without gut (ng/bee) (in vivo; [4]): 3.1 ± 1.5 ng/bee | Gut (ng/bee) (in vivo; [4]): 0.6 ± 0.2 ng/bee | bioavailability (in vivo; [5]): 21% | oral bioavailability (%) (in vivo; [9]): 20.6 ± 9.9% | Bee without gut % (in vivo; ± SD): 79 ± 11% | Gut % (in vivo; ± SD): 21 ± 11% | Relative metabolization rate [1, 6]: metabolized significantly slower | Metabolization percentage, day 4 to 5 [1]: significantly lower; also recorded: negative metabolization percentages | Metabolization percentage, day 1 to 5 ([1]; quantity in whole bees vs total intake over the 5-day feeding period, day 5, 2 h after feeding was terminated): significantly lower | Mean concentration (ng/bee) in whole bees [1, 7]: 4.4 ± 2.8 ng/bee
